Data as given in ChEMBL document CHEMBL4229455, “Synthesis and anticancer activity of novel bisindolylhydroxymaleimide derivatives with potent GSK-3 kinase inhibition” (Bioorg Med Chem, 2018).

Key:
[1] = molecular target: CDK9/cyclin T1 (Homo sapiens) (UniProt O60563+P50750); experiment: Inhibition of recombinant full length human CDK9/cyclin T expressed in baculovirus infected Sf9 insect cells assessed as residual activity at 10 uM using YSPTSPSYSPTSPSYSPTSPSKKKK as substrate in presence of [gamma-33P]ATP
Malme-3M = experiment: Cytotoxicity against human MALME-3M cells assessed as cell growth at 10 uM after 48 hrs by SRB assay relative to control; assay type: functional; settings: read-out: Activity
[2] = molecular target: T1, Serine/threonine-protein kinase haspin (Homo sapiens, UniProt Q8TF76); experiment: Inhibition of recombinant human haspin kinase domain expressed in bacteria using histone H3 (1 to 21 residues) peptide as substrate in presence of [gamma-33P]ATP
T1 sequence (Q8TF76 whole entry): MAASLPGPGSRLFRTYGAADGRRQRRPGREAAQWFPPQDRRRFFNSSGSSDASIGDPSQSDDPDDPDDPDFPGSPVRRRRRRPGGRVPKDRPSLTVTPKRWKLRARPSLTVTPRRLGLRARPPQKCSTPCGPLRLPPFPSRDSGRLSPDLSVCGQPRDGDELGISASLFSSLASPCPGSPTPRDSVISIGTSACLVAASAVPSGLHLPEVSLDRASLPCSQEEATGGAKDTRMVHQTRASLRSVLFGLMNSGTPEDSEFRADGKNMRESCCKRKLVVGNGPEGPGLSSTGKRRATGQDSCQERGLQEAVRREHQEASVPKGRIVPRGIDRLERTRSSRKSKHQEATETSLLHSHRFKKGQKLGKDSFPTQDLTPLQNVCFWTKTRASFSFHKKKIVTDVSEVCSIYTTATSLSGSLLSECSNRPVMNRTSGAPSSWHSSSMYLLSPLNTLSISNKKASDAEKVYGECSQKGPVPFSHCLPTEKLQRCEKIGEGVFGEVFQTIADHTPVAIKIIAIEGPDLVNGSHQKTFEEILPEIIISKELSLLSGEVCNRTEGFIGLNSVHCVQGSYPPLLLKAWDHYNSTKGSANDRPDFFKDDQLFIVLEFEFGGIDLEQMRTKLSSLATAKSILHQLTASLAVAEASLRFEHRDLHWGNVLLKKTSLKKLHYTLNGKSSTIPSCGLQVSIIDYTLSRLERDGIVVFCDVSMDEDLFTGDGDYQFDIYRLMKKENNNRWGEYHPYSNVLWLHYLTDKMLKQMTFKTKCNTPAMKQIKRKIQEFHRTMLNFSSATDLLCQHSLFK

U-251 = experiment: Cytotoxicity against human U251 cells assessed as cell growth at 10 uM after 48 hrs by SRB assay relative to control; assay type: functional; settings: U-251, 48 h, read-out: Activity
A498 = experiment: Cytotoxicity against human A498 cells assessed as cell growth at 10 uM after 48 hrs by SRB assay relative to control; assay type: functional; settings: A498, 48 h, read-out: Activity
COLO 205 = experiment: Cytotoxicity against human COLO205 cells assessed as cell growth at 10 uM after 48 hrs by SRB assay relative to control; assay type: functional; settings: COLO 205, 48 h, read-out: Activity
A549 = experiment: Cytotoxicity against human A549 cells assessed as cell growth at 10 uM after 48 hrs by SRB assay relative to control; assay type: functional; settings: A549, 48 h, read-out: Activity
NCI-H226 = experiment: Cytotoxicity against human NCI-H226 cells assessed as cell growth at 10 uM after 48 hrs by SRB assay relative to control; assay type: functional; settings: NCI-H226, 48 h, read-out: Activity
OVCAR-8 = experiment: Cytotoxicity against human OVCAR8 cells assessed as cell growth at 10 uM after 48 hrs by SRB assay relative to control; assay type: functional; settings: OVCAR-8, 48 h, read-out: Activity
KM12 = experiment: Cytotoxicity against human KM12 cells assessed as cell growth at 10 uM after 48 hrs by SRB assay relative to control; assay type: functional; settings: KM12, 48 h, read-out: Activity
NCI-H322M = experiment: Cytotoxicity against human NCI-H322M cells assessed as cell growth at 10 uM after 48 hrs by SRB assay relative to control; assay type: functional; settings: read-out: Activity
UACC-62 = experiment: Cytotoxicity against human UACC62 cells assessed as cell growth at 10 uM after 48 hrs by SRB assay relative to control; assay type: functional; settings: UACC-62, 48 h, read-out: Activity
NCI/ADR-RES = experiment: Cytotoxicity against human NCI-ADR-RES cells assessed as cell growth at 10 uM after 48 hrs by SRB assay relative to control; assay type: functional; settings: read-out: Activity
[3] = Inhibition of domestic porcine brain full length […] using RRKHAAIGSpAYSITA as substrate in presence of [gamma-33P]ATP; set-up: species or system Sus scrofa domesticus
MDA-MB-468 = experiment: Cytotoxicity against human MDA-MB-468 cells assessed as cell growth at 10 uM after 48 hrs by SRB assay relative to control; assay type: functional; settings: MDA-MB-468, 48 h, read-out: Activity
[4] = molecular target: Glycogen synthase kinase-3 (Sus scrofa, UniProt B2LUN4+I6LNT8); experiment: Inhibition of domestic porcine brain full length GSK-3alpha/beta using GS-1 as substrate in presence of [gamma-33P]ATP; set-up: species or system Sus scrofa domesticus
NCI-H23 = experiment: Cytotoxicity against human NCI-H23 cells assessed as cell growth at 10 uM after 48 hrs by SRB assay relative to control; assay type: functional; settings: NCI-H23, 48 h, read-out: Activity
RXF 393 = experiment: Cytotoxicity against human RXF393 cells assessed as cell growth at 10 uM after 48 hrs by SRB assay relative to control; assay type: functional; settings: RXF 393, 48 h, read-out: Activity
CCRF-CEM = experiment: Cytotoxicity against human CCRF-CEM cells assessed as cell growth at 10 uM after 48 hrs by SRB assay relative to control; assay type: functional; settings: read-out: Activity
HT-29 = experiment: Cytotoxicity against human HT-29 cells assessed as cell growth at 10 uM after 48 hrs by SRB assay relative to control; assay type: functional; settings: HT-29, 48 h, read-out: Activity
PC-3 = experiment: Cytotoxicity against human PC3 cells assessed as cell growth at 10 uM after 48 hrs by SRB assay relative to control; assay type: functional; settings: PC-3, 48 h, read-out: Activity
M14 = experiment: Cytotoxicity against human M14 cells assessed as cell growth at 10 uM after 48 hrs by SRB assay relative to control; assay type: functional; settings: M14, 48 h, read-out: Activity
BT-549 = experiment: Cytotoxicity against human BT549 cells assessed as cell growth at 10 uM after 48 hrs by SRB assay relative to control; assay type: functional; settings: BT-549, 48 h, read-out: Activity
CDK2/Cyclin A2 = CDK2/Cyclin A2 (Homo sapiens, UniProt P24941); experiment: Inhibition of full length human CDK2/cyclin A using histone H1 as substrate in presence of [gamma-33P]ATP; assay type: protein-complex assay
HCC 2998 = experiment: Cytotoxicity against human HCC2998 cells assessed as cell growth at 10 uM after 48 hrs by SRB assay relative to control; assay type: functional; settings: HCC 2998, 48 h, read-out: Activity
HCT-15 = experiment: Cytotoxicity against human HCT15 cells assessed as cell growth at 10 uM after 48 hrs by SRB assay relative to control; assay type: functional; settings: HCT-15, 48 h, read-out: Activity

Row | Compound | Activity [1] [%] | growth at 10 µM (Malme-3M) [%] | IC50 [2] [µM] | growth at 10 µM (U-251) [%] | growth at 10 µM (A498) [%] | growth at 10 µM (COLO 205) [%] | growth at 10 µM (A549) [%] | growth at 10 µM (NCI-H226) [%] | growth at 10 µM (OVCAR-8) [%] | growth at 10 µM (KM12) [%] | growth at 10 µM (NCI-H322M) [%] | growth at 10 µM (NCI/ADR-RES) [%] | IC50 [3] [µM] | growth at 10 µM (MDA-MB-468) [%] | IC50 [4] [µM] | growth at 10 µM (RXF 393) [%] | growth at 10 µM (HT-29) [%] | growth at 10 µM (M14) [%] | growth at 10 µM (BT-549) [%] | IC50 (CDK2/Cyclin A2) [µM] | also measured
1 | N#CCCCCCn1cc(C2=C(c3cn(CCCCCC#N)c4ccccc34)C(=O)N(O)C2=O)c2ccccc21 | 55 | 55 | > 10 | 25 to 82.2 | 16 to 69.2 | 74 to 91.7 | 51 to 73.6 | 44 to 70 | 55 to 87.6 | 25 to 65.7 | 45 to 92.3 | 62 to 96.3 | > 10 | 3 to 58 | 0.75 | 2 to 73.2 | 51 to 92.4 | 28 to 73.4 | 16 to 56 | > 10 | growth at 10 µM (UACC-62): 14 to 53.3%; growth at 10 µM (NCI-H23): 38 to 76.9%; growth at 10 µM (CCRF-CEM): 8 to 54.2%; growth at 10 µM (PC-3): 29 to 70.3%; growth at 10 µM (HCC 2998): 59 to 99.6%; growth at 10 µM (HCT-15): 21 to 70.8%
2 | N#CCCCCCn1cc(C2=C(c3cn(CCCCCC#N)c4ccccc34)C(=O)NC2=O)c2ccccc21 | 9 | 121 | > 10 | 83.8 | 54.5 | 73.8 | 85.6 | 80.4 | 89.9 | 81 | 103 | 79 | > 10 | 63.3 | 0.12 | 62.1 | 84.4 | 125 | 73.6 | 2.5 | growth at 10 µM (UACC-62): 99.3%; growth at 10 µM (NCI-H23): 97.1%; growth at 10 µM (CCRF-CEM): 73.5%; growth at 10 µM (PC-3): 58%; growth at 10 µM (HCC 2998): 107%; growth at 10 µM (HCT-15): 69.4%
3 | Cn1cc(C2=C(c3cn(C)c4ccccc34)C(=O)N(O)C2=O)c2ccccc21 | 38 | 118 | > 10 | 91.4 | 85.8 | 104 | 87.8 | 88.7 | 96.5 | 104 | 103 | 102 | > 10 | 86.4 | 3 | 82.8 | 102 | 105 | 107 | > 10 | growth at 10 µM (HCC 2998): 106%; growth at 10 µM (HCT-15): 99.9%
4 | O=C1C2=C(C(=O)N1O)c1cn(c3ccccc13)CCCCCCn1cc2c2ccccc21 | 87 | 105 | > 10 | 106 | 88.3 | 110 | 108 | 101 | 110 | 107 | 108 | 108 | > 10 | 97.5 | > 10 | 119 | 121 | 102 | 97.6 | > 10 | growth at 10 µM (UACC-62): 100%; growth at 10 µM (NCI-H23): 99.7%; growth at 10 µM (CCRF-CEM): 99.4%; growth at 10 µM (PC-3): 95.8%; growth at 10 µM (HCC 2998): 110%; growth at 10 µM (HCT-15): 108%
